# In patent publication US20170106027A1, “COMPOSITIONS AND METHODS OF IMPROVING PERFORMANCE AND INTESTINAL HEALTH OF POULTRY” (Kemin Industries, Inc., priority 2015, published 2017):
# “And” between values parts separate entries of the source, which are not always exact repeats. Identical values can stand only once. Like-named read-outs stand apart in the source and are kept apart here.
# Assays:
# E. tenella [1] = format: in vivo, Cobb×Cobb 500 male broiler chicks; conditions: scored d35, scale 0-4
# E. acervulina [2] = format: in vivo, Cobb×Cobb 500 male broiler chicks; conditions: scored d35, scale 0-4
# E. maxima [3] = format: in vivo, Cobb×Cobb 500 male broiler chicks; conditions: scored d35, scale 0-4
# E. maxima [4] = format: in vivo, Cobb×Cobb 500 male broiler chicks; conditions: feces d35
# [5] = test system: mixed Eimeria challenge (E. acervulina, E. maxima, E. tenella); parameters: species or system Cobb×Cobb 500 male broiler chicks; conditions: in vivo
# E. tenella [6] = format: in vivo, Cobb×Cobb 500 male broiler chicks; conditions: feces d35
# E. acervulina [7] = format: in vivo, Cobb×Cobb 500 male broiler chicks; conditions: feces d35
# [8] = test system: Eimeria tenella sporozoites; test: In vitro MTT assay of Eimeria tenella sporozoite viability
# C. perfringens = format: in vivo, Cobb×Cobb 500 male broiler chicks
# [9] = Treatments In (kept in basal diet d28-35)
# [10] = Treatments Out (removed from basal diet d28-35)
Molecule,Average lesion score E. tenella (E. tenella [1]; [9]),Average lesion score E. tenella (E. tenella [1]; [10]),Average lesion score E. acervulina (E. acervulina [2]; [9]),Average lesion score E. acervulina (E. acervulina [2]; [10]),Average lesion score E. maxima (E. maxima [3]; [9]),Average lesion score E. maxima (E. maxima [3]; [10]),Average oocysts per gram (OPG) in feces E. maxima (E. maxima [4]; Treatments In) [oocysts per gram],Average oocysts per gram (OPG) in feces E. maxima (E. maxima [4]; Treatments Out) [oocysts per gram],Average lesion score Overall [5],Average oocysts per gram (OPG) in feces E. tenella (E. tenella [6]; Treatments In) [oocysts per gram],Average oocysts per gram (OPG) in feces E. tenella (E. tenella [6]; Treatments Out) [oocysts per gram],Average oocysts per gram (OPG) in feces E. acervulina (E. acervulina [7]; Treatments In) [oocysts per gram],Average oocysts per gram (OPG) in feces E. acervulina (E. acervulina [7]; Treatments Out) [oocysts per gram],additional decrease of sporozoite viability ([8]; 100 ppm compared to 50 ppm) [%],"sporozoite viability (in words) ([8]; MTT assay, 50 and 100 ppm, salinomycin 60 ppm positive control)",mortality due to necrotic enteritis (in words) (C. perfringens; C. perfringens challenged birds),FCR (in words) (C. perfringens; C. perfringens challenged broilers),"FCR (0-21 days) (C. perfringens; challenged with C. perfringens d19, 20, 21, FCR adjusted for mortality)"
"CC[C@@H](C(=O)[C@@H](C)[C@@H](O)[C@H](C)[C@@H]1O[C@@H]([C@@H](CC)C(=O)O)CC[C@@H]1C)[C@H]1O[C@]2(C=C[C@@H](O)[C@]3(CC[C@@](C)([C@H]4CC[C@](O)(CC)[C@H](C)O4)O3)O2)[C@H](C)C[C@@H]1C [BioCox ®, salinomycin]",1.05,1.00,0.95,1.50,0.60,0.78,67,0,0.87 and 1.09,1167,1668,734,19510,–,–,–,–,–
"N=C(N/N=C/c1ccc(Cl)cc1)N/N=C/c1ccc(Cl)cc1 [Robenz ®, Robenidine]",2.30,1.00,0.45,1.38,0.30,0.68,0,600,1.02,1034,3468,1301,4869,–,–,–,–,–
O=C(OC[C@H]1O[C@@H](OC(=O)c2cc(O)c(O)c(OC(=O)c3cc(O)c(O)c(O)c3)c2)[C@H](OC(=O)c2cc(O)c(O)c(OC(=O)c3cc(O)c(O)c(O)c3)c2)[C@@H](OC(=O)c2cc(O)c(O)c(OC(=O)c3cc(O)c(O)c(O)c3)c2)[C@@H]1OC(=O)c1cc(O)c(O)c(OC(=O)c2cc(O)c(O)c(O)c2)c1)c1cc(O)c(O)c(OC(=O)c2cc(O)c(O)c(O)c2)c1 [tannic acid],–,–,–,–,–,–,–,–,–,–,–,–,–,5,reductions were greater,–,–,–
bacitracin methylene disalicylate [BMD],–,–,–,–,–,–,–,–,–,–,–,–,–,–,–,reduced,improved FCR,1.904
